Laboratory results published in publication PMC10362319 (Toxicon: X, 2023).

Experiments:
[1] = BTX-2 5 μM, 60 min incubations with HLM and fish microsomes
[2] = HLM incubation, decreasing thereafter
[3] = GSH conjugation of BTX-2 with deactivated RSN2 microsomes and 100 μM GSH; type: in vitro ADME, Lutjanus campechanus
[4] = Chemical GSH conjugation of BTX-2 without microsomes; type: physicochemical
[5] = GSH conjugation of BTX-2 with active RSN2 microsomes and 100 μM GSH; type: in vitro ADME, Lutjanus campechanus
[6] = RSN1 control without NADPH regeneration system

Substance: Hydroxyl BTX-2 (rings A-E) [Compound 4b]
- occurrence of the metabolite across microsomal incubations [1]: occurred mainly in the two Lutjanid species

Substance: 41,43-dihydro-BTX-2 [Compound 2b]
- time at which the metabolite reached a maximum [2]: about 15 min

Substance: BTX-2-GSH [Compound 12]
- formation rate of BTX-2-GSH [3]: 0.46 min⁻¹
- formation rate of BTX-2-GSH [4]: 0.46 min⁻¹
- formation rate of BTX-2-GSH [5]: 0.18 min⁻¹

Substance: A-ring hydrolyzed BTX-3 [Compound 6a]
- occurrence of the metabolite across microsomal incubations [1]: produced in all fish microsomes and in HLM

Substance: 41,43-dihydro-BTX-B5 [Compound 5e]
- occurrence of the metabolite across microsomal incubations [1]: only produced by HLM

Substance: 41,43-dihydro-BTX-B5 [Compound 5d]
- occurrence of the metabolite across microsomal incubations [1]: only produced by HLM

Substance: BTX-9 [Compound 3]
- metabolite formation where the NADPH regeneration system was excluded [6]: not formed
